The text below walks through data of patent publication US11452717B2, “Small molecule activators of nicotinamide phosphoribosyltransferase (NAMPT) and uses thereof” (Sanford Burnham Prebys Medical Discovery Institute, priority 2017, dated 2022).

SMILES strings stand for the structures.

NAMPT enzyme, sequence (P43490 whole entry, species assumed): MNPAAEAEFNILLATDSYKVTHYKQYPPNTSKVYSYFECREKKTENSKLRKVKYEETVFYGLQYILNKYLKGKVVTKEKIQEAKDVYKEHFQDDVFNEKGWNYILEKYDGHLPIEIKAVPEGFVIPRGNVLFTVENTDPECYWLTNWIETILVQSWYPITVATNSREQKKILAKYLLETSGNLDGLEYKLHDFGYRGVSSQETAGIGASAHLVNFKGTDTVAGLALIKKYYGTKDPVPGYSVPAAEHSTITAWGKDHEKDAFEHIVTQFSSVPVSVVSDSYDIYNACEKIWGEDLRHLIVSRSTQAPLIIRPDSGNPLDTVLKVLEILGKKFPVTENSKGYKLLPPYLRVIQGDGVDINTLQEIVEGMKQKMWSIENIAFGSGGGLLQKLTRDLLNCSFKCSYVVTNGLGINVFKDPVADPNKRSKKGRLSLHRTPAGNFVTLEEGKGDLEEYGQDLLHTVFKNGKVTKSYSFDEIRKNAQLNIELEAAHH

In one assay the target is NAMPT enzyme (Homo sapiens (Human), UniProt P43490). Kind of assay: Enzyme Assay and NMN Detection (NAMPT reaction, fluorescence detection of NMN). The assay is classed as biochemical. The settings on record: Table B-1; NAMPT activation, NMN formation. The gist of the method:
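Reaction in 50 mM HEPES pH 7.5, 5 mM MgCl2, 0.1% Prionex, 0.005% Tween 20, 1 mM TCEP at room temperature, with 16 nM NAMPT, 120 uM ATP, 5 uM nicotinamide, 6.25 uM PRPP, 0.04 U/ml pyrophosphatase for 2 h. Stopped with acetophenone/KOH then formic acid; NMN quantified by fluorescence (ex380/em460) against calibration curve.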
As for `O=C(NCc1cn[nH]c1)Nc1ccc(S(=O)(=O)Nc2ccccn2)cc1` [4-[3-(1H-Pyrazol-4-ylmethyl)-ureido]-N-pyridin-2-yl-benzenesulfonamide], the EC50 (as a rule, the concentration that produces a half-maximal response) lay in the range of 2 to 5 µM.

Take `CCOC(=O)c1ccc(NC(=O)NCc2cn(Cc3ccc(OC)cc3)nn2)cc1` [Ethyl 4-(3-((1-(4-methoxybenzyl)-1H-1,2,3-triazol-4-yl)methyl)ureido)benzoate]: the EC50 was over 20 µM.

`CCOC(=O)c1ccc(NC(=O)NCc2cn(C)cn2)cc1` [Ethyl 4-(3-((1-methyl-1H-imidazol-4-yl)methyl)ureido)benzoate] registered an EC50 of over 20 µM.

Compound `CCOC(=O)c1ccc(NC(=O)NCc2cncn2C)cc1` [Ethyl 4-(3-((1-methyl-1H-imidazol-5-yl)methyl)ureido)benzoate] had an EC50 of over 20 µM.

`CCOC(=O)c1ccc(NC(=O)NCc2cnn(C)c2)cc1` [Ethyl 4-(3-((1-methyl-1H-pyrazol-4-yl)methyl)ureido)benzoate] registered a 50% effective concentration (EC50) of over 20 µM.

`CCOC(=O)c1ccc(NC(=O)NCc2ccnn2C)cc1` [Ethyl 4-(3-((1-methyl-1H-pyrazol-5-yl)methyl)ureido)benzoate] yielded an EC50 of over 20 µM.

In turn, `CCOC(=O)c1ccc(NC(=O)NCc2c[nH]nn2)cc1` [Ethyl 4-(3-((1H-1,2,3-triazol-4-yl)methyl)ureido)benzoate] displayed an EC50 of over 20 µM.

`CCOC(=O)c1ccc(NC(=O)NCc2c[nH]cn2)cc1` [Ethyl 4-(3-((1H-imidazol-4-yl)methyl)ureido)benzoate]: the EC50 is over 20 µM.

Consider `CCOC(=O)c1ccc(NC(=O)NCc2cnc[nH]2)cc1` [Ethyl 4-(3-((1H-imidazol-5-yl)methyl)ureido)benzoate], for which the concentration giving a half-maximal response (EC50) is over 20 µM.

As to `CCOC(=O)c1ccc(NC(=O)NCc2cc[nH]n2)cc1` [Ethyl 4-(3-((1H-pyrazol-3-yl)methyl)ureido)benzoate], the concentration giving a half-maximal response (EC50) is over 20 µM.

The compound `CCOC(=O)c1ccc(NC(=O)NCc2cn[nH]c2)cc1` [Ethyl 4-(3-((1H-pyrazol-4-yl)methyl)ureido)benzoate] displayed an EC50 of 0.1 to 2 µM.

Compound `CCOC(=O)c1ccc(NC(=O)NCc2c(C)noc2C)cc1` [Ethyl 4-(3-((3,5-dimethylisoxazol-4-yl)methyl)ureido)benzoate] displayed an EC50 of over 20 µM.

In turn, `CCOC(=O)c1ccc(NC(=O)NCc2c[nH]nc2N)cc1` [Ethyl 4-(3-((3-amino-1H-pyrazol-4-yl)methyl)ureido)benzoate] had an EC50 of over 20 µM.

Compound `CCOC(=O)c1ccc(NC(=O)NCc2c[nH]nc2C)cc1` [Ethyl 4-(3-((3-methyl-1H-pyrazol-4-yl)methyl)ureido)benzoate] registered an EC50 of over 20 µM.

For `CCOC(=O)c1ccc(NC(=O)NCc2cocn2)cc1` [Ethyl 4-(3-(oxazol-4-ylmethyl)ureido)benzoate], the EC50 was over 20 µM.

The same assay, now with this note: Table B-2; NAMPT activation, NMN formation.
`COc1ccc(S(=O)(=O)Nc2ccc(NC(=O)NCc3ccncc3)cc2)cc1` [4-Methoxy-N-[4-(3-pyridin-4-ylmethyl-ureido)-phenyl]-benzenesulfonamide] had an EC50 of 0.1 to 2 µM.

The compound `COC(=O)c1ccc(CNS(=O)(=O)c2ccc(NC(=O)NCc3ccncc3)cc2)cc1` [4-{[4-(3-Pyridin-4-ylmethyl-ureido)-benzenesulfonylamino]-methyl}-benzoic acid methyl ester] registered a concentration giving a half-maximal response (EC50) of 0.1 to 2 µM.

In the case of `CCOC(=O)c1ccccc1NC(=O)NCc1ccncc1` [Ethyl 2-(3-(pyridin-4-ylmethyl)ureido)benzoate], the concentration for a half-maximal effect (EC50) is over 20 µM.

In turn, `CCOC(=O)c1cccc(NC(=O)NCc2ccncc2)c1` [Ethyl 3-(3-(pyridin-4-ylmethyl)ureido)benzoate] returned an EC50 of 5 to 20 µM.

`CCOC(=O)c1ccc(NC(=O)NCc2ccnc(N)c2)cc1` [Ethyl 4-(3-((2-aminopyridin-4-yl)methyl)ureido)benzoate] displayed an EC50 of over 20 µM.

`CCOC(=O)c1ccc(NC(=O)NCc2ccnc(Cl)c2)cc1` [Ethyl 4-(3-((2-chloropyridin-4-yl)methyl)ureido)benzoate] displayed an EC50 of over 20 µM.

Take `CCOC(=O)c1ccc(NC(=O)NCc2ccnc(F)c2)cc1` [Ethyl 4-(3-((2-fluoropyridin-4-yl)methyl)ureido)benzoate]: the EC50 was over 20 µM.

`CCOC(=O)c1ccc(NC(=O)NCc2ccnc(OC)c2)cc1` [Ethyl 4-(3-((2-methoxypyridin-4-yl)methyl)ureido)benzoate] displayed an EC50 of over 20 µM.

As for `CCOC(=O)c1ccc(NC(=O)NCc2ccnc(C)c2)cc1` [Ethyl 4-(3-((2-methylpyridin-4-yl)methyl)ureido)benzoate], the EC50 is over 20 µM.

For `CCOC(=O)c1ccc(NC(=O)NCc2ccncc2N)cc1` [Ethyl 4-(3-((3-aminopyridin-4-yl)methyl)ureido)benzoate], the EC50 was over 20 µM.

Compound `CCOC(=O)c1ccc(NC(=O)NCc2ccncc2Cl)cc1` [Ethyl 4-(3-((3-chloropyridin-4-yl)methyl)ureido)benzoate] had an EC50 of over 20 µM.

On to `CCOC(=O)c1ccc(NC(=O)NCc2ccncc2F)cc1` [Ethyl 4-(3-((3-fluoropyridm-4-yl)methyl)ureido)benzoate], for which the EC50 lay within 0.1 to 2 µM.

Take `CCOC(=O)c1ccc(NC(=O)NCc2ccncc2C)cc1` [Ethyl 4-(3-((3-methylpyridin-4-yl)methyl)ureido)benzoate]: the EC50 was over 20 µM.

Staying with this assay, now noted: Table B-3; NAMPT activation, NMN formation.
Regarding `NC(=O)c1ccc(NC(=O)NCc2ccncc2)cn1` [5-(3-(pyridin-4-ylmethyl)ureido)picolinamide], the concentration for a half-maximal effect (EC50) fell in the range of 2 to 5 µM.

Take `CCOC(=O)c1ccc(NC(=O)NCC2CCNc3ccccc32)cc1` (stereo not shown) [Ethyl 4-(3-((1,2,3,4-tetrahydroquinolin-4-yl)methyl)ureido)benzoate]: the EC50 is over 20 µM.

`CCOC(=O)c1ccc(NC(=O)NCc2ccncc2Cl)cc1` [Ethyl 4-(3-((3-chloropyridin-4-yl)methyl)ureido)benzoate] registered an EC50 of over 20 µM.

Take `CCOC(=O)c1ccc(NC(=O)NCc2ccnnc2)cc1` [Ethyl 4-(3-(pyridazin-4-ylmethyl)ureido)benzoate]: the EC50 is over 20 µM.

Compound `CCOC(=O)c1ccc(NC(=O)NCc2ccccn2)cc1` [Ethyl 4-(3-(pyridin-2-ylmethyl)ureido)benzoate] gave an EC50 of over 20 µM.

For `CCOC(=O)c1ccc(NC(=O)NCc2cccnc2)cc1` [Ethyl 4-(3-(pyridin-3-ylmethyl)ureido)benzoate], the half-maximal effective concentration (EC50) was over 20 µM.

The compound `CCOC(=O)c1ccc(NC(=S)NCc2ccncc2)cc1` [Ethyl 4-(3-(pyridin-4-ylmethyl)thioureido)benzoate] gave an EC50 of over 20 µM.

The same assay, now with this note: Table B-4; NAMPT activation, NMN formation.
On to `O=C(NCc1cn[nH]c1)Nc1ccc(NS(=O)(=O)Cc2ccccc2Cl)cc1` [C-(2-Chloro-phenyl)-N-{4-[3-(1H-pyrazol-4-ylmethyl)-ureido]-phenyl}-methanesulfonamide], for which the EC50 was under 0.1 µM.

The compound `O=C(NCc1cn[nH]c1)Nc1ccc(NS(=O)(=O)Cc2ccc(Cl)c(Cl)c2)cc1` [C-(3,4-Dichloro-phenyl)-N-{4-[3-(1H-pyrazol-4-ylmethyl)-ureido]-phenyl}-methanesulfonamide] showed an EC50 of under 0.1 µM.

Take `O=C(NCc1cn[nH]c1)Nc1ccc(NS(=O)(=O)Cc2cccc(Cl)c2)cc1` [C-(3-Chloro-phenyl)-N-{4-[3-(1H-pyrazol-4-ylmethyl)-ureido]-phenyl}-methanesulfonamide]: the EC50 is under 0.1 µM.

The compound `O=C(NCc1cn[nH]c1)Nc1ccc(NS(=O)(=O)Cc2ccc(Cl)cc2)cc1` [C-(4-Chloro-phenyl)-N-{4-[3-(1H-pyrazol-4-ylmethyl)-ureido]-phenyl}-methanesulfonamide] displayed an EC50 of under 0.1 µM.

Still in this assay, the particulars now being: Table B-6; NAMPT activation, NMN formation.
Take `O=C(NCc1ccncc1)Nc1ccc(NS(=O)(=O)Cc2ccccc2Br)cc1` [C-(2-Bromo-phenyl)-N-[4-(3-pyridin-4-ylmethyl-ureido)-phenyl]-methanesulfonamide]: the EC50 is under 0.1 µM.

Compound `O=C(NCc1ccncc1)Nc1ccc(NS(=O)(=O)Cc2ccccc2F)cc1` [C-(2-Fluoro-phenyl)-N-[4-(3-pyridin-4-ylmethyl-ureido)-phenyl]-methanesulfonamide] showed an EC50 of under 0.1 µM.

As to `COc1ccccc1CS(=O)(=O)Nc1ccc(NC(=O)NCc2ccncc2)cc1` [C-(2-Methoxy-phenyl)-N-[4-(3-pyridin-4-ylmethyl-ureido)-phenyl]-methanesulfonamide], the EC50 lay within 0.1 to 2 µM.

`O=C(NCc1ccncc1)Nc1ccc(NS(=O)(=O)Cc2cccc(F)c2)cc1` [C-(3-Fluoro-phenyl)-N-[4-(3-pyridin-4-ylmethyl-ureido)-phenyl]-methanesulfonamide]: the EC50 is under 0.1 µM.

On to `COc1cccc(CS(=O)(=O)Nc2ccc(NC(=O)NCc3ccncc3)cc2)c1` [C-(3-Methoxy-phenyl)-N-[4-(3-pyridin-4-ylmethyl-ureido)-phenyl]-methanesulfonamide], for which the EC50 was under 0.1 µM.

`O=C(NCc1ccncc1)Nc1ccc(NS(=O)(=O)Cc2ccc(Br)cc2)cc1` [C-(4-Bromo-phenyl)-N-[4-(3-pyridin-4-ylmethyl-ureido)-phenyl]-methanesulfonamide] gave an EC50 of under 0.1 µM.

Compound `N#Cc1ccc(CS(=O)(=O)Nc2ccc(NC(=O)NCc3ccncc3)cc2)cc1` [C-(4-Cyano-phenyl)-N-[4-(3-pyridin-4-ylmethyl-ureido)-phenyl]-methanesulfonamide] had an EC50 of 0.1 to 2 µM.

In turn, `O=C(NCc1ccncc1)Nc1ccc(NS(=O)(=O)Cc2ccc(C3CC3)cc2)cc1` [C-(4-Cyclopropyl-phenyl)-N-[4-(3-pyridin-4-ylmethyl-ureido)-phenyl]-methanesulfonamide] showed an EC50 of under 0.1 µM.

In the case of `COc1ccc(CS(=O)(=O)Nc2ccc(NC(=O)NCc3ccncc3)cc2)cc1` [C-(4-Methoxy-phenyl)-N-[4-(3-pyridin-4-ylmethyl-ureido)-phenyl]-methanesulfonamide], the 50% effective concentration (EC50) was under 0.1 µM.

`O=C(NCc1ccncc1)Nc1ccc(NS(=O)(=O)Cc2ccc(-c3ccccc3)cc2)cc1` [C-Biphenyl-4-yl-N-[4-(3-pyridin-4-ylmethyl-ureido)-phenyl]-methanesulfonamide] came in with an EC50 of under 0.1 µM.
